Broadly, the IC50 is the concentration at which inhibition is half-maximal.

Some results are limits rather than exact numbers.

Test [1] has as its target T1, Recombinant wild type LRRK2 protein (Homo sapiens, UniProt Q5S007).
T1 construct: purchased Life Technologies PR8604B
Briefly: LRRK2 kinase activity assay (LanthaScreen TR-FRET), wild type. The format is biochemical. The note with it: 400 nM LRRKtide, 25 μM ATP, 60 min at room temperature; read-out: LRRK2 WT IC50. On the procedure:
(§1) LRRK2 kinase activity was measured using a LanthaScreen™ Kinase Activity Assay from ThermoFisher Scientific. Recombinant wild type or G2019S-LRRK2 protein (Life Technologies, PR8604B or PV4881, respectively), was incubated with a fluorescein-labeled peptide substrate called LRRKtide that is based upon ezrin/radixin/moesin (ERM) (Life Technologies, PV4901) in the presence of ATP and serially diluted compound. After an incubation period of 1 hr, the phosphotransferase activity was stopped and a terbium-labelled anti-pERM antibody (Life Technologies, PV4899) was added to detect the phosphorylation of LRRKtide by measuring the time resolved-Forster resonant energy transfer (TR-FRET) signal from the terbium label on the antibody to the fluorescein tag on LRRKtide, expressed as the 520 nm/495 nm emission ratio. Compound-dependent inhibition of the TR-FRET signal was used to generate a concentration-response curve for IC50 determination.
(§2) The assay was carried out under the following protocol conditions: 1 mM compound in DMSO was serially diluted 1:3, 11 points in DMSO with a Biomek FX and 0.1 μL of the diluted compound was subsequently stamped into the assay plate (384-well format Lumitrac 200, Greiner, 781075) with an Echo Labcyte such that the final compound concentration in the assay was 10 μM to […]. Subsequently, 5 μL of 2× kinase solution (2.9 nM final concentration) was added to the assay plate in assay buffer composed of 50 mM Tris pH 8.5 (Sigma, T6791), 5 mM MgCl2 (Fluka, 63020), 1 mM EGTA (Sigma, E3889), 0.01% BRU-35 (Sigma, P1254) and 2 mM DTT. The reaction was started by addition of 2×ATP/LRRKtide solution in assay buffer such that the final concentration was 400 nM LRRKtide and 25 μM ATP. After 60 min incubation at room temperature, the reaction was stopped by addition of […] containing a final concentration of 2 nM anti-pERM antibody and […]. After a 30 min incubation at RT, the TR-FRET signal was measured on a Wallac 2104 EnVision® multilabel reader at an excitation wavelength of 340 nm and reading emission at 520 nm and 495 nm. The ratio of the 520 nm and 495 nm emission was used to analyze the data.
Background: TR-FRET usually uses a lanthanide donor and a delayed reading to cut background.

The target in test [2] is T2, Recombinant G2019S-LRRK2 protein (Homo sapiens, UniProt Q5S007, G2019S).
T2 construct: purchased Life Technologies PV4881
T2 sequence (Q5S007 970-2527 G2019S limits assumed): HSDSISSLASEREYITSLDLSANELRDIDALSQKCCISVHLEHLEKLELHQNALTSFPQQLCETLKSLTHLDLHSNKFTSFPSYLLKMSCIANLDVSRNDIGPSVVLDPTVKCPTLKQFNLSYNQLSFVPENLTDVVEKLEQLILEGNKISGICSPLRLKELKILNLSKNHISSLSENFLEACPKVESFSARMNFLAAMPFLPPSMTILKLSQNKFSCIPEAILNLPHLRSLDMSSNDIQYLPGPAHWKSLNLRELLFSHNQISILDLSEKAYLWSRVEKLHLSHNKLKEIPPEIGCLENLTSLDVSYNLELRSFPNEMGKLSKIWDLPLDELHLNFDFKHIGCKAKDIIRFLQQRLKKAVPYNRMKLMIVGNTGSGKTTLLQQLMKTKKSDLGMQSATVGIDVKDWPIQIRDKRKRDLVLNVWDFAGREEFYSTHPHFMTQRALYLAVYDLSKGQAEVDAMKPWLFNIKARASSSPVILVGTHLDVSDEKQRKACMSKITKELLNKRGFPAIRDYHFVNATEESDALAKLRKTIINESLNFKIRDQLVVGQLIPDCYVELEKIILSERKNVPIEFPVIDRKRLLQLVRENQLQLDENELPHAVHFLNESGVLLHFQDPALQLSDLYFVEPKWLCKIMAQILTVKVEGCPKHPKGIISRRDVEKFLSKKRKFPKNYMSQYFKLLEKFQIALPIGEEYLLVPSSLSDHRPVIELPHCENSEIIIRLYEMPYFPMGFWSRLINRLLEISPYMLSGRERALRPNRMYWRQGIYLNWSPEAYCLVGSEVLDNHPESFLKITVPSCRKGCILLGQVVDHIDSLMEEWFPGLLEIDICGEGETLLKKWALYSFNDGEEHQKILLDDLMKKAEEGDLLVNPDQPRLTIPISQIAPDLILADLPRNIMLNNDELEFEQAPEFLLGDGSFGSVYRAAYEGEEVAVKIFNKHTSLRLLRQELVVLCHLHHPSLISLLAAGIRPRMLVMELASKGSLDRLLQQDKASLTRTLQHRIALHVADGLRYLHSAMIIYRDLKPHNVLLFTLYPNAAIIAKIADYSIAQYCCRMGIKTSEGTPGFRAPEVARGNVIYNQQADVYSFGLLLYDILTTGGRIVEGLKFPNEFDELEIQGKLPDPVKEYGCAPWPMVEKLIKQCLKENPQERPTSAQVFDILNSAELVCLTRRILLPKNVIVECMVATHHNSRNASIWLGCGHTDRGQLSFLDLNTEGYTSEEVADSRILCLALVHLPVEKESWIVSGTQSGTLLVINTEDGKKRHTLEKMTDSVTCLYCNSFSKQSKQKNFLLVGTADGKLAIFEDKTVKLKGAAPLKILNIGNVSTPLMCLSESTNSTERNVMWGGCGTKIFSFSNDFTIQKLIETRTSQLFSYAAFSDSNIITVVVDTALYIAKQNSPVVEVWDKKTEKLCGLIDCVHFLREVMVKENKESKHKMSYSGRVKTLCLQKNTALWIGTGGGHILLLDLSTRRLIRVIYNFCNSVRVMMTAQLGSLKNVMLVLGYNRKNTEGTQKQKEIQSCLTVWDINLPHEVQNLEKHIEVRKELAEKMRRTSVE
Briefly: LRRK2 kinase activity assay (LanthaScreen TR-FRET), G2019S mutant. The note with it: 400 nM LRRKtide, 25 μM ATP, 60 min at room temperature. The format is biochemical. On the procedure: as §1, §2

T1 sequence (Q5S007 whole entry): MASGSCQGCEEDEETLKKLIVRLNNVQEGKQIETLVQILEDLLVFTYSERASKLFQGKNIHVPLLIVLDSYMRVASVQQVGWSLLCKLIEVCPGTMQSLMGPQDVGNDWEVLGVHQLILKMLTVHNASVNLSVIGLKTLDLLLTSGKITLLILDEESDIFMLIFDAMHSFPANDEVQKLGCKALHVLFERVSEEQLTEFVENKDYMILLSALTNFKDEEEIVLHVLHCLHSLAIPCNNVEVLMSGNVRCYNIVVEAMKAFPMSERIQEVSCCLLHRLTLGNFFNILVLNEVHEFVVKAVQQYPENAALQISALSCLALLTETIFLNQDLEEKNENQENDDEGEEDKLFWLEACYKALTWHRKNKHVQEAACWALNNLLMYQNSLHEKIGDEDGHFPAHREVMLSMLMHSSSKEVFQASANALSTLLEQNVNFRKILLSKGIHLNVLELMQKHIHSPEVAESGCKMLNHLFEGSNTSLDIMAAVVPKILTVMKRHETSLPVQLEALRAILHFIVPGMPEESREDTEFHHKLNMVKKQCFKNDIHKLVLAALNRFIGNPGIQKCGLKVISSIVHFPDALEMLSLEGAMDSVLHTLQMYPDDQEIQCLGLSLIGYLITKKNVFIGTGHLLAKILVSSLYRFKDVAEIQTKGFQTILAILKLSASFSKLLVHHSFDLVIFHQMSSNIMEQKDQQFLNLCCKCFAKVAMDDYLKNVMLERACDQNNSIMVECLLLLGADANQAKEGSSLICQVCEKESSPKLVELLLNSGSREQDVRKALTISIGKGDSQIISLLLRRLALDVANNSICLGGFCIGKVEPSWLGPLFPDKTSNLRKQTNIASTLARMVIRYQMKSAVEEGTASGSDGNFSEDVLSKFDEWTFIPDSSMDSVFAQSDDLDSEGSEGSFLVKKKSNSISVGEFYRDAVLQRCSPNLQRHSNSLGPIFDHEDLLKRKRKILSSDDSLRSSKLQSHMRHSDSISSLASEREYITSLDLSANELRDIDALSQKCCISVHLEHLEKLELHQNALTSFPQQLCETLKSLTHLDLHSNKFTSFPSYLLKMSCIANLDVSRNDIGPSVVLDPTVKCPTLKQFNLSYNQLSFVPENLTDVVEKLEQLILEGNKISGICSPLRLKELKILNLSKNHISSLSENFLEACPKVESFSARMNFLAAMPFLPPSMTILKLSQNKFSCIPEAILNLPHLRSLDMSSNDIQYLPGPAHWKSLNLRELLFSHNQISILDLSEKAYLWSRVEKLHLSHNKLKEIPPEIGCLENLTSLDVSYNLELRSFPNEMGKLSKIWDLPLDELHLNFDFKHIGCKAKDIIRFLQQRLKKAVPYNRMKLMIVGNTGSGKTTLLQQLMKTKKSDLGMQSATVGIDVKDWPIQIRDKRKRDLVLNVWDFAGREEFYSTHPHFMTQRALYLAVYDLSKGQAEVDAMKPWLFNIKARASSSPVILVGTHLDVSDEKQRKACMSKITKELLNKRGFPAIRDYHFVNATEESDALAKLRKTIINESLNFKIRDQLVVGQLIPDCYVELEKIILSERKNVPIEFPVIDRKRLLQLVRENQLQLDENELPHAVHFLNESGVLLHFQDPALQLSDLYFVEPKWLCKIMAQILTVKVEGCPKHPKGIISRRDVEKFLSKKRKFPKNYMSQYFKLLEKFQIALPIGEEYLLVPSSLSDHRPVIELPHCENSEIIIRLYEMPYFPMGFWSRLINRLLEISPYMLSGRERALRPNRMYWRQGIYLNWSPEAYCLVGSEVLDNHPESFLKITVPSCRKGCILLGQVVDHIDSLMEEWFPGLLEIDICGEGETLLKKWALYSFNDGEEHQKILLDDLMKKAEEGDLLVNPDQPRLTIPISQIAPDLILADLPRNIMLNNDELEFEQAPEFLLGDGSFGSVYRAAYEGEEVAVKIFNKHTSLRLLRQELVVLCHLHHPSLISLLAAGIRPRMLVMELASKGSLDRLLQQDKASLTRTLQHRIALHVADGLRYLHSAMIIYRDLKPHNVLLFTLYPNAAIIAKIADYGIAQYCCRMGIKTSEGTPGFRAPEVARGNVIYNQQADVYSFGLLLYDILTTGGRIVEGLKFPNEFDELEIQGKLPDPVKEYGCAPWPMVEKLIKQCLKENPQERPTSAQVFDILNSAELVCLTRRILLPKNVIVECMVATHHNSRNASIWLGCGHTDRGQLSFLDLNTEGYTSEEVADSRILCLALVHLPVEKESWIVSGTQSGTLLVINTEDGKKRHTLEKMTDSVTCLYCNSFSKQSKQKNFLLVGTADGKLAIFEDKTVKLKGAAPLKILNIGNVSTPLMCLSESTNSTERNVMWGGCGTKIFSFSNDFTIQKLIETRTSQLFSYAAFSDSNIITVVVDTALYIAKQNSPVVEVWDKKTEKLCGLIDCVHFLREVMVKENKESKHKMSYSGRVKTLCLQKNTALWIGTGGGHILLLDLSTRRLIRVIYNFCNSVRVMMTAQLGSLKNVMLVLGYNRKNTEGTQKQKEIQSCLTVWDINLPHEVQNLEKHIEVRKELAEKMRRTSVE

Regarding `CCC1C(C(=O)Nc2ccc3[nH]ncc3c2)=C(C)N(C)c2nnnn21` (racemic) [Example 8, 7-Ethyl-N-(1H-indazol-5-yl)-4,5-dimethyl-4H,7H-[1,2,3,4]tetrazolo[1,5-a]pyrimidine-6-carboxamide], the IC50 in test [1] is 100 to 1000 nM; in test [2], not above 100 nM.

`CC1=C(C(=O)Nc2cc3cn[nH]c3cn2)C(C)n2nnnc2N1C` (racemic) [Example 23, 4,5,7-trimethyl-N-(1H-pyrazolo[3,4-c]pyridin-5-yl)-4,7-dihydrotetrazolo[1,5-a]pyrimidine-6-carboxamide]: the IC50 was 100 to 1000 nM in test [1] and not above 100 nM in test [2].

As to `CC1=C(C(=O)Nc2ccc3[nH]ncc3c2)C(C)n2nnnc2N1C` (single isomer, unassigned) [Example 2a], the IC50 in test [1] and in test [2] was not above 100 nM each time.

Regarding `CC1=C(C(=O)Nc2ccc3[nH]ncc3c2)C(C)n2nnnc2N1C` (single isomer, unassigned) [Example 2b], the results for the IC50 in test [1] and in test [2] were 1000 to 10000 nM and 100 to 1000 nM, respectively.

In the case of `CCC1C(C(=O)Nc2ccc3[nH]ncc3c2)=C(C)N(C)c2nnnn21` (single isomer, unassigned) [Example 8a], the IC50 in test [1] was 100 to 1000 nM; in test [2], not above 100 nM.

Regarding `CCC1C(C(=O)Nc2ccc3[nH]ncc3c2)=C(C)N(C)c2nnnn21` (single isomer, unassigned) [Example 8b], the IC50 in test [1] is 100 to 1000 nM; in test [2] it was not above 100 nM.

`CC1=C(C(=O)Nc2ccc3[nH]nc(-c4ccnc(N5CCOCC5)c4)c3c2)[C@@H](C)n2nnnc2N1C` (single isomer, unassigned) [Example 24a]: the IC50 in test [1] and in test [2] was not above 100 nM throughout.

For `CC1=C(C(=O)Nc2ccc3[nH]nc(-c4ccnc(N5CCOCC5)c4)c3c2)[C@H](C)n2nnnc2N1C` (single isomer, unassigned) [Example 24b], the IC50 in test [1] and in test [2] was not above 100 nM throughout.

On to `CC1=C(C(=O)Nc2ccc3[nH]ncc3c2)Cn2nnnc2N1C` [Example 1, N-(1H-Indazol-5-yl)-4,5-dimethyl-4H,7H-[1,2,3,4]tetrazolo[1,5-a]pyrimidine-6-carboxamide], for which the half-inhibitory concentration (IC50) in test [1] was 100 to 1000 nM; in test [2] it was not above 100 nM.

For `CC1=C(C(=O)Nc2ccc3[nH]ncc3c2)C(C)n2nnnc2N1C` (stereo not drawn) [Example 2, N-(1H-indazol-5-yl)-4,5,7-trimethyl-4H,7H-[1,2,3,4]tetrazolo[1,5-a]pyrimidine-6-carboxamide], the half-inhibitory concentration (IC50) in test [1] is 100 to 1000 nM; in test [2], not above 100 nM.

Consider `CC1=C(C(=O)Nc2ccc3cn[nH]c3c2)Cn2nnnc2N1C` [Example 3, N-(1H-indazol-6-yl)-4,5-dimethyl-4H,7H-[1,2,3,4]tetrazolo[1,5-a]pyrimidine-6-carboxamide], for which the IC50 in test [1] and in test [2] was 1000 to 10000 nM throughout.

On to `CC1=C(C(=O)Nc2ccc3[nH]ncc3c2)Cn2nnnc2N1CCN1CCOCC1` [Example 4, N-(1H-Indazol-5-yl)-5-methyl-4-[2-(morpholin-4-yl)ethyl]-4H,7H-[1,2,3,4]tetrazolo[1,5-a]pyrimidine-6-carboxamide], for which the IC50 in test [1] and in test [2] was 1000 to 10000 nM in each case.

On to `CCC1=C(C(=O)Nc2ccc3[nH]ncc3c2)Cn2nnnc2N1C` [Example 5, 5-Ethyl-N-(1H-indazol-5-yl)-4-methyl-4H,7H-[1,2,3,4]tetrazolo[1,5-a]pyrimidine-6-carboxamide], for which the IC50 in test [1] and in test [2] was 100 to 1000 nM throughout.

`CC1=C(C(=O)Nc2ccc3[nH]nc(-c4ccncc4)c3c2)Cn2nnnc2N1C` [Example 6, 4,5-dimethyl-N-(3-(pyridin-4-yl)-1H-indazol-5-yl)-4,7-dihydrotetrazolo[1,5-a]pyrimidine-6-carboxamide]: the IC50 in test [1] and in test [2] was not above 100 nM in each case.

For `CC1=C(C(=O)Nc2ccc3[nH]nc(-c4ccnc(N5CCOCC5)c4)c3c2)Cn2nnnc2N1C` [Example 7, 4,5-Dimethyl-N-(3-(2-morpholinopyridin-4-yl)-1H-indazol-5-yl)-4,7-dihydrotetrazolo[1,5-a]pyrimidine-6-carboxamide], the IC50 in test [1] and in test [2] was not above 100 nM each time.

For `CC1=C(C(=O)Nc2ccc3[nH]nc(-c4cc(N5CCOCC5)ncn4)c3c2)Cn2nnnc2N1C` [Example 9, 4,5-Dimethyl-N-(3-(6-morpholinopyrimidin-4-yl)-1H-indazol-5-yl)-4,7-dihydrotetrazolo[1,5-a]pyrimidine-6-carboxamide], the IC50 in test [1] and in test [2] was not above 100 nM throughout.

`CC1=C(C(=O)Nc2ccc3[nH]nc(Br)c3c2)Cn2nnnc2N1C` [Example 10, N-(3-Bromo-1H-indazol-5-yl)-4,5-dimethyl-4,7-dihydrotetrazolo[1,5-a]pyrimidine-6-carboxamide]: the IC50 in test [1] and in test [2] was not above 100 nM in each case.

`CC1=C(C(=O)Nc2ccc3[nH]nc(-c4ccc(S(N)(=O)=O)cc4)c3c2)Cn2nnnc2N1C` [Example 11, 4,5-Dimethyl-N-(3-(4-sulfamoylphenyl)-1H-indazol-5-yl)-4,7-dihydrotetrazolo[1,5-a]pyrimidine-6-carboxamide]: the IC50 in test [1] and in test [2] was not above 100 nM in each case.

`CC1=C(C(=O)Nc2ccc3[nH]ncc3c2)Cn2nnnc2N1C(=O)N(C)C` [Example 12, N^6-(1H-indazol-5-yl)-N^4,N^4,5-trimethyltetrazolo[1,5-a]pyrimidine-4,6(7H)-dicarboxamide]: the figures for the IC50 in test [1] and in test [2] were 100 to 1000 nM and not above 100 nM, respectively.

On to `CC1=C(C(=O)Nc2ccc3[nH]ncc3c2)Cn2nnnc2N1c1ccccc1` [Example 13, N-(1H-indazol-5-yl)-5-methyl-4-phenyl-4,7-dihydrotetrazolo[1,5-a]pyrimidine-6-carboxamide], for which the IC50 in test [1] and in test [2] was not above 100 nM each time.

On to `CC1=C(C(=O)Nc2ccc3[nH]ncc3c2F)Cn2nnnc2N1C` [Example 14, N-(4-fluoro-1H-indazol-5-yl)-4,5-dimethyl-4,7-dihydrotetrazolo[1,5-a]pyrimidine-6-carboxamide], for which the figures for the IC50 in test [1] and in test [2] were 1000 to 10000 nM and 100 to 1000 nM, respectively.

With `CC1=C(C(=S)Nc2ccc3[nH]ncc3c2)Cn2nnnc2N1C` [Example 15, N-(1H-indazol-5-yl)-4,5-dimethyl-4,7-dihydrotetrazolo[1,5-a]pyrimidine-6-carbothioamide], the IC50 in test [1] was 100 to 1000 nM; in test [2], not above 100 nM.

In the case of `CC1=C(C(=O)Nc2cnc3n[nH]cc3c2)C(C)n2nnnc2N1C` (stereo not drawn) [Example 16, 4,5,7-trimethyl-N-(2H-pyrazolo[3,4-b]pyridin-5-yl)-4,7-dihydrotetrazolo[1,5-a]pyrimidine-6-carboxamide], the IC50 was 1000 to 10000 nM in test [1] and 100 to 1000 nM in test [2].

On to `COc1cc2n[nH]cc2cc1NC(=O)C1=C(C)N(C)c2nnnn2C1` [Example 17, N-(6-methoxy-2H-indazol-5-yl)-4,5-dimethyl-4,7-dihydrotetrazolo[1,5-a]pyrimidine-6-carboxamide], for which the figures for the IC50 in test [1] and in test [2] were more than 10000 nM and 1000 to 10000 nM, respectively.

In the case of `CC1=C(C(=O)Nc2ccc3[nH]nc(C(N)=O)c3c2)Cn2nnnc2N1C` [Example 18, N-(3-carbamoyl-2H-indazol-5-yl)-4,5-dimethyl-4,7-dihydrotetrazolo[1,5-a]pyrimidine-6-carboxamide], the IC50 in test [1] was 100 to 1000 nM; in test [2], not above 100 nM.

With `CC1=C(C(=O)Nc2cc3c[nH]nc3cc2F)Cn2nnnc2N1C` [Example 19, N-(6-fluoro-2H-indazol-5-yl)-4,5-dimethyl-4,7-dihydrotetrazolo[1,5-a]pyrimidine-6-carboxamide], the IC50 in test [1] and in test [2] was 100 to 1000 nM each time.

Regarding `CC1=C(C(=O)Nc2cc3c[nH]nc3cc2C(N)=O)Cn2nnnc2N1C` [Example 20, N-(6-carbamoyl-2H-indazol-5-yl)-4,5-dimethyl-4,7-dihydrotetrazolo[1,5-a]pyrimidine-6-carboxamide], the IC50 in test [1] and in test [2] was 1000 to 10000 nM each time.

For the compound `CC1=C(C(=O)Nc2cc3c[nH]nc3cc2N)Cn2nnnc2N1C` [Example 21, N-(6-amino-2H-indazol-5-yl)-4,5-dimethyl-4,7-dihydrotetrazolo[1,5-a]pyrimidine-6-carboxamide], the concentration for half-maximal inhibition (IC50) in test [1] and in test [2] was 1000 to 10000 nM throughout.

In the case of `CC1=C(C(=O)Nc2ccc3c(c2)CC(=O)N3)Cn2nnnc2N1C` [Example 29, 4,5-dimethyl-N-(2-oxoindolin-5-yl)-4,7-dihydrotetrazolo[1,5-a]pyrimidine-6-carboxamide], the IC50 in test [2] lay in the range of 1000 to 10000 nM.

These data come from patent US20210261553A1, “FUSED TETRAZOLES AS LRRK2 INHIBITORS” (E-SCAPE Bio, Inc., priority 2018, published 2021).
